Laboratory results reported in patent US10336702B2, “Pharmaceutically active compounds” (BERGENBIO ASA, priority 2015, dated 2019).

Columns and labels:
[1] = target: T1, Akt2 (Homo sapiens, UniProt P31751); experiment: Akt activation assay (PDK1-mediated activation, LANCE Ultra crosstide TR-FRET), Akt2; type: biochemical; settings: read-out: Biological Assay 1 IC50 (nM) Akt2
T1 construct: unspecified tag, removed (detagged) (cleaved yes); purchased SignalChem and Proteros (Akt2); Merck Millipore (PDK1) 14-452 (PDK1); none given for Akt2
Experimental: (§1) Biological Assay 1: Akt Activation Assay
(§2) Addition of a Europium-labelled antibody specific to the phosphopeptide allows energy transfer from the Europium donor to the Ultra Ulight™ acceptor if close enough in proximity.
(§3) Full length active His6-tagged PDK1 was obtained from Merck Millipore (14-452).
(§4) 1× assay buffer (AB): 50 mM HEPES pH 7.5, 1 mM EGTA, 10 mM MgCl2, 0.01% Tween. Immediately before use, DTT to a concentration of 2 mM was added.
(§5) To prepare lipid vesicles: 1 mg/ml PtdIns(3,4,5)P3 solution (in 10 mM HEPES 7.5) was added to 16.7 mg/ml DOPS/DOPC mixture (in 10 mM HEPES pH 7.5) in a ratio of 1:8.3. MilliQ water was added to the solution to generate concentrations of 400 μM DOPS, 400 μM DOPC and 40 μM PtdIns(3,4,5)P3. The mixture was subjected to 5× freeze/thaw cycles and aliquots stored at −20° C.
(§6) 5 μL enzyme in 1×AB was incubated with 2.5 μL test compound. To start the reaction 2.5 μL reaction mix was added which consisted of PDK1, lipid preparations, crosstide and ATP in 1×AB. Final assay concentrations were as follows: 1% DMSO, 5 nM SignalChem Akt1/15 nM SignalChem Akt2/3 nM Signalchem Akt3/5 nM Proteros Akt1/5 nM proteros Akt2/5 nM Proteros Akt3, 5 nM PDK1, 5.5 μM DOPS, 5.5 μM DOPC, 0.55 μM PtdIns(3,4,5)P3, 100 μM ATP, 100 nM LANCE® Ultra Ulight™-Crosstide. After 30 min, the reaction was stopped using 5 μL 40 μM EDTA in 1× Detection buffer for 5 min. For detection, 5 μL 8 nM LANCE® Ultra Europium-anti-phospho-Crosstide antibody in 1× Detection buffer was added to each well and incubated for 1 h. Plates read with the EnVision® Multilabel Plate Reader, excitation at 320 nm and emission at 665 nm and 615 nm. Compound IC50 was determined using a 4-parameter equation.

[2] = target: T2, Akt3 (Homo sapiens, UniProt Q9Y243); experiment: Akt activation assay (PDK1-mediated activation, LANCE Ultra crosstide TR-FRET), Akt3; type: biochemical; settings: read-out: Biological Assay 1 IC50 (nM) Akt3
T2 construct: unspecified tag, removed (detagged) (cleaved yes); purchased SignalChem and Proteros (Akt3); Merck Millipore (PDK1) 14-452 (PDK1); none given for Akt3
Experimental: as §1, §2, §3, §4, §5, §6

[3] = target: T3, p-Akt2 in WM115 cells (Homo sapiens, UniProt P31751); experiment: Phospho-Akt cellular SureFire assay, p-Akt2 in WM115 cells; type: cell-based; settings: insulin stimulated, read-out: Biological Assay 2 IC50 (nM) Akt2 WM115
T3 construct: SureFire assays to detect cellular p-Akt1, p-Akt2 and p-Akt3 levels in WM115 cells (Akt2/3) and LNCaP cells (Akt1); endogenous in cells; host or cells: WM115 (ECACC 91061232), insulin-stimulated
Description: (§7) Biological Assay 2: Phospho-Akt (p-Akt) Cellular SureFire Assays
(§8) The following describes SureFire assays to detect cellular p-Akt1, p-Akt2 and p-Akt3 levels in WM115 cells (Akt2/3) and LNCaP cells (Akt1). In the case of Akt2 and Akt3, Streptavidin-coated donor beads capture a biotinylated anti-mouse antibody that in turn recognises a mouse total Akt antibody which is specific to each isoform. The protein A-conjugated acceptor beads capture an antibody that recognises the phosphoprotein. Similarly in the Akt1 kit, the donor and acceptor beads are used to capture each antibody pair consisting of an antibody that specifically recognises Akt1 as well as an antibody that recognises the phosphoprotein. In each case, close proximity of the beads allows energy transfer from donor to acceptor.
(§9) Custom kit from TGR/Perkin Elmer for Akt2/3 containing anti-(pThr308)Akt antibody and biotinylated anti-mouse capture antibody.
Total Akt2 antibody (NEB UK, 5239)
(§10) WM115 cells (ECACC, 91061232) cultured in MEM culture media (M2279) supplemented with 2 mM L-glutamine (G7513), 1% non-essential amino acids (M7145), 1% sodium pyruvate (S8636) and 10% FBS (F0804)
(§11) Cell treatment: 1×10^5 WM115 cells or 5×10^4 LNCaP cells were seeded into each well of a 96 well poly-D-Lysine coated tissue culture plate and incubated overnight at 37° C.+5% CO2. Media was removed from cells and replaced with assay buffer consisting of the full culture media described above but with 0.1% FBS instead of 10% FBS. Only WM115 cells were stimulated at 37° C.+5% CO2 for 10 min with 5 μL insulin at a final concentration of 100 nM. Cells were incubated with 5 μL of test compound at a final DMSO concentration of 0.3% for 15 min at 37° C.+5% CO2. Cell lysis was carried out according to kit instructions.
(§12) Assay format (performed in subdued lighting): 4 μL cell lysate and 5 μL reaction buffer were incubated together in the dark at room temperature for 2 h. Reaction buffer was supplemented with a 1/5 dilution of activation buffer, a 1/50 dilution of acceptor beads and in the case of the custom kits, antibodies were added at dilutions of 1/20,000 for Akt2 and 1/2,000 for Akt3.
(§13) 2 μL dilution buffer, supplemented with a 1/20 dilution of donor beads was added to each well and incubated for a further 2 h. Plates were read with the EnVision® Multilabel Plate Reader and using the AlphaScreen settings. Compound IC50 was determined using a 4-parameter equation.

[4] = target: T4, p-Akt3 in WM115 cells (Homo sapiens, UniProt Q9Y243); experiment: Phospho-Akt cellular SureFire assay, p-Akt3 in WM115 cells; type: cell-based; settings: insulin stimulated, read-out: Biological Assay 2 IC50 (nM) Akt3 WM115
T4 construct: SureFire assays to detect cellular p-Akt1, p-Akt2 and p-Akt3 levels in WM115 cells (Akt2/3) and LNCaP cells (Akt1); endogenous in cells; host or cells: WM115 (ECACC 91061232), insulin-stimulated
Description: as §7, §8, §9
Total Akt3 antibody (R&D Systems MAB 1463)
as §10, §11, §12, §13

[5] = target: T5, Akt1 (Homo sapiens, UniProt P31749); experiment: Akt activation assay (PDK1-mediated activation, LANCE Ultra crosstide TR-FRET), Akt1; type: biochemical; settings: read-out: Biological Assay 1 IC50 (nM) Akt1
T5 construct: unspecified tag, removed (detagged) (cleaved yes); purchased SignalChem and Proteros (Akt1); Merck Millipore (PDK1) 14-452 (PDK1); none given for Akt1
Experimental: as §1, §2, §3, §4, §5, §6

T4 sequence (Q9Y243 whole entry): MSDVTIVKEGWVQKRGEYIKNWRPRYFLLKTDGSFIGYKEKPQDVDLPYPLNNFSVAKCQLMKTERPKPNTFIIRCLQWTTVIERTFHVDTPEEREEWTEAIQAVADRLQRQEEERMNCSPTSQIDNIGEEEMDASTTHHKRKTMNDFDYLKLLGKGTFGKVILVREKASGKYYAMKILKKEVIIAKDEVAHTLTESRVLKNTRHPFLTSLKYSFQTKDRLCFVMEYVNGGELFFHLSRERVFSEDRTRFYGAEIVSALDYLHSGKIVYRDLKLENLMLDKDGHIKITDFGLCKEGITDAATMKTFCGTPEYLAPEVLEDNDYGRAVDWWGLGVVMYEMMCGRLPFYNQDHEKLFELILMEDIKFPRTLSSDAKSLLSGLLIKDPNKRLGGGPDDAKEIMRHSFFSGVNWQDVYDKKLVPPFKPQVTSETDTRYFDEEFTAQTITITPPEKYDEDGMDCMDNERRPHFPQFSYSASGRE
T2 sequence (Q9Y243 whole entry): as above
T1 sequence (P31751 whole entry): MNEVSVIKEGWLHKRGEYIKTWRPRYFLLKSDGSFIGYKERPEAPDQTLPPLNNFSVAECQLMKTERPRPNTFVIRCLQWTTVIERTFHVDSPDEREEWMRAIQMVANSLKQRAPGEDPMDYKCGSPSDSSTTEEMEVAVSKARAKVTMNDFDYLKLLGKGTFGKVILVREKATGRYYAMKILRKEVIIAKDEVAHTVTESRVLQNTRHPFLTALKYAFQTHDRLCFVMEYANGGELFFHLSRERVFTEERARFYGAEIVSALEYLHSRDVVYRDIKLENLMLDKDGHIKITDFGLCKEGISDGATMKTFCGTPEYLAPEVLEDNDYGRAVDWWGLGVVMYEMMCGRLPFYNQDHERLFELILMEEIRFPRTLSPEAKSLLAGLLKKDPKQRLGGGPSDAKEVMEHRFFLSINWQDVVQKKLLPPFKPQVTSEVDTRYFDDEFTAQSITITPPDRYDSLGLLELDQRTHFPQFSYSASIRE
T3 sequence (P31751 whole entry): as above
T5 sequence (P31749 whole entry): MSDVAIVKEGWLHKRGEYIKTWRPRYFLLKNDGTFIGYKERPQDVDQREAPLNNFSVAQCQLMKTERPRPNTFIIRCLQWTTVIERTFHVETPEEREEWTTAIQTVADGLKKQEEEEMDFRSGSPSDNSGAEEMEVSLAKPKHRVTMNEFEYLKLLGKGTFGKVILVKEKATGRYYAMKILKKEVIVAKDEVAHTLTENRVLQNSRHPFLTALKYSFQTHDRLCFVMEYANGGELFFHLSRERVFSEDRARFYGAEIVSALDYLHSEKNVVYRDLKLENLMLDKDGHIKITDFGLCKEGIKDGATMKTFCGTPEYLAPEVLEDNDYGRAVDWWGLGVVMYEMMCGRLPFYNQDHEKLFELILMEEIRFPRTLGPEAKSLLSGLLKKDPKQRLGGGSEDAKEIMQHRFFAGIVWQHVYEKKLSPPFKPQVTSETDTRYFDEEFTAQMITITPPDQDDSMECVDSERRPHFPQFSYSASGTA

Row | SMILES | IC50 [1] | IC50 [2] | IC50 [3] | IC50 [4] | IC50 [5]
1 | NC1(c2ccc(-c3ncc(NC(=O)C[C@H]4CC[C@H](N5CCOC5=O)CC4)cc3-c3ccccc3)cc2)CC(F)(F)C1 [Example A3, N-(6-(4-(1-amino-3,3-difluorocyclobutyl)phenyl)-5-phenylpyridin-3-yl)-2-(trans-4-(2-oxooxazolidin-3-yl)cyclohexyl)acetamide] | 530 nM | 150 nM | 2600 nM | 100 nM | > 5100 nM
2 | CCN(C(=O)OC)[C@H]1CC[C@H](CC(=O)Nc2cc(-c3ccccc3)c(-c3ccc([C@]4(N)C[C@](C)(O)C4)cc3)cn2)CC1 [Example 116, Methyl (trans-4-(2-((5-(4-(trans-1-amino-3-hydroxy-3-methylcyclobutyl)phenyl)-4-phenylpyridin-2-yl)amino)-2-oxoethyl)cyclohexyl) (ethyl)carbamate] | 220 nM | 21 nM | 1400 nM | 72 nM | > 30000 nM
3 | NC1(c2ccc(-c3ncc(NC(=O)C(F)C4CCN(S(=O)(=O)C5CC5)CC4)cc3-c3ccccc3)cc2)CCC1 (stereo not shown) [Example 40, N-(6-(4-(1-aminocyclobutyl)phenyl)-5-phenylpyridin-3-yl)-2-(1-(cyclopropylsulfonyl)piperidin-4-yl)-2-fluoroacetamide] | 440 nM | 360 nM | 2900 nM | 220 nM | 9800 nM
4 | NC1(c2ccc(-c3ncc(NC(=O)C[C@H]4CC[C@H](N5CCOC5=O)CC4)cc3-c3ccccc3)cc2)CCC1 [Example A27, N-(6-(4-(1-aminocyclobutyl)phenyl)-5-phenylpyridin-3-yl)-2-(trans-4-(2-oxooxazolidin-3-yl)cyclohexyl)acetamide] | 180 nM | 19 nM | 790 nM | 51 nM | 4100 nM
5 | CC(=O)N(C)[C@H]1CC[C@H](CC(=O)Nc2cc(-c3ccccc3)c(-c3ccc([C@]4(N)C[C@](C)(O)C4)c(F)c3)cn2)CC1 [Example 111, N-(5-(4-(trans-1-amino-3-hydroxy-3-methylcyclobutyl)-3-fluorophenyl)-4-phenylpyridin-2-yl)-2-(trans-4-(N-methylacetamido)cyclohexyl)acetamide] | 1400 nM | 68 nM | 3200 nM | 29 nM | > 27000 nM
6 | CCC(=O)N(C)[C@H]1CC[C@H](CC(=O)Nc2cc(-c3ccccc3)c(-c3ccc([C@]4(N)C[C@](C)(O)C4)c(F)c3)cn2)CC1 [Example 112, N-(trans-4-(2-((5-(4-(trans-1-amino-3-hydroxy-3-methylcyclobutyl)-3-fluorophenyl)-4-phenylpyridin-2-yl)amino)-2-oxoethyl)cyclohexyl)-N-methylpropionamide] | 1300 nM | 55 nM | 3400 nM | 31 nM | > 30000 nM
7 | COC(=O)N(C)[C@H]1CC[C@H](CC(=O)Nc2cc(-c3ccccc3F)c(-c3ccc([C@]4(N)C[C@](C)(O)C4)cc3)cn2)CC1 [Example 96, Methyl (trans-4-(2-((5-(4-(trans-1-amino-3-hydroxy-3-methylcyclobutyl)phenyl)-4-(2-fluorophenyl)pyridin-2-yl)amino)-2-oxoethyl)cyclohexyl)(methyl)carbamate] | 140 nM | 18 nM | 1300 nM | 51 nM | 
8 | CC(=O)N(C)[C@H]1CC[C@H](CC(=O)Nc2cc(-c3ccsc3)c(-c3ccc(C4(N)CCC4)cc3)nn2)CC1 [Example A97, N-(6-(4-(1-aminocyclobutyl)phenyl)-5-(thiophen-3-yl)pyridazin-3-yl)-2-(trans-4-(N-methylacetamido)cyclohexyl)acetamide] | 430 nM | 9 nM | 3200 nM | 41 nM | 

Now from value to compound:

Row | IC50 [1] | IC50 [2] | IC50 [3] | IC50 [4] | IC50 [5] | SMILES
9 | 800 nM | 110 nM | 3000 nM | 61 nM | 3900 nM | CC(=O)N(C)[C@H]1CC[C@H](CC(=O)Nc2cnc(-c3ccc(C4(N)CC(F)(F)C4)cc3)c(-c3ccccc3)c2)CC1 [Example 5]
10 | 120 nM | 10 nM | 660 nM | 17 nM | > 22000 nM | CCC(=O)N(C)[C@H]1CC[C@H](CC(=O)Nc2cc(-c3ccccc3F)c(-c3ccc([C@]4(N)C[C@](C)(O)C4)cc3)cn2)CC1 [Example 95, N-(trans-4-(2-((5-(4-(trans-1-amino-3-hydroxy-3-methylcyclobutyl)phenyl)-4-(2-fluorophenyl)pyridin-2-yl)amino)-2-oxoethyl)cyclohexyl)-N-methylpropionamide]
11 | 1000 nM | 84 nM | 2300 nM | 220 nM |  | CC(=O)N(C)[C@H]1CC[C@H](CC(=O)Nc2cnc(-c3ccc(C4(N)CC4)cc3)c(-c3ccccc3)c2)CC1 [Example 12, N-(6-(4-(1-aminocyclopropyl)phenyl)-5-phenylpyridin-3-yl)-2-(trans-4-(N-methylacetamido)cyclohexyl)acetamide]
12 | 230 nM | 12 nM | 1700 nM | 38 nM | > 25000 nM | CCC(=O)N(C)[C@H]1CC[C@H](CC(=O)Nc2cc(-c3ccccc3)c(-c3ccc([C@]4(N)C[C@H](F)C4)cc3)nn2)CC1 [Example 123, N-(trans-4-(2-((6-(4-(trans-1-amino-3-fluorocyclobutyl)phenyl)-5-phenylpyridazin-3-yl)amino)-2-oxoethyl)cyclohexyl)-N-methylpropionamide]
13 | 2500 nM | 120 nM | 6500 nM | 170 nM |  | CCC(=O)N(C)[C@H]1CC[C@H](CC(=O)Nc2cnc(-c3ccc(C4(N)CC4)c(F)c3)c(-c3ccccc3)c2)CC1 [Example 90, N-(trans-4-(2-((6-(4-(1-aminocyclopropyl)-3-fluorophenyl)-5-phenylpyridin-3-yl)amino)-2-oxoethyl)cyclohexyl)-N-methylpropionamide]
